The target of one test is T1, Rat α4β2 (Rattus norvegicus, UniProt P09483+P12390).
T1 construct: Preparation of membranes from rat tissues; Rat cortices were obtained from Analytical Biological Services; tissue Analytical Biological Services, Incorporated (ABS, Wilmington, Del.); host or cells: rat cortex membranes (female Sprague-Dawley)
The experiment in a line: Competition binding to rat α4β2 receptors in membrane preparations. The procedure: (§1) Preparation of membranes from rat tissues. Rat cortices were obtained from Analytical Biological Services, Incorporated (ABS, Wilmington, Del.). Tissues were dissected from female Sprague-Dawley rats, frozen and shipped on dry ice. Tissues were stored at −20° C. until needed for membrane preparation. Cortices from 10 rats were pooled and homogenized by Polytron (Kinematica GmbH, Switzerland) in 10 volumes (weight:volume) of ice-cold preparative buffer (KCl, 11 mM; KH2PO4, 6 mM; NaCl 137 mM; Na2HPO4 8 mM; HEPES (free acid), 20 mM; iodoacetamide, 5 mM; EDTA, 1.5 mM; 0.1 mM PMSF pH 7.4). The resulting homogenate was centrifuged at 40,000 g for 20 minutes at 4° C. and the resulting pellet was resuspended in 20 volumes of ice-cold water. After 60-minute incubation at 4° C., a new pellet was collected by centrifugation at 40,000 g for 20 minutes at 4° C. The final pellet was resuspended in preparative buffer and stored at −20° C. On the day of the assay, tissue was thawed, centrifuged at 40,000 g for 20 minutes and then resuspended in PBS (Dulbecco's Phosphate Buffered Saline, Life Technologies, pH 7.4) to a final concentration of 2-3 mg protein/mL. Protein concentrations were determined using the Pierce BCA Protein Assay kit (Pierce Biotechnology, Rockford, Ill.), with bovine serum albumin as the standard. Preparation of membranes from clonal cell lines. Cells were harvested in ice-cold PBS, pH 7.4, then homogenized with a polytron (Brinkmann Instruments, Westbury, N.Y.). Homogenates were centrifuged at 40,000 g for 20 minutes (4° C.). The pellet was resuspended in PBS and protein concentration determined using the Pierce BCA Protein Assay kit (Pierce Biotechnology, Rockford, Ill.).
(§2) Competition binding to receptors in membrane preparations. Binding to nicotinic receptors was assayed on membranes using standard methods adapted from published procedures (Lippiello and Fernandes, 1986; Davies et al., 1999). In brief, membranes were reconstituted from frozen stocks (approximately 0.2 mg protein) and incubated for 2 h on ice in […] assay buffer (PBS) in the presence of competitor compound (0.001 nM to […]) and radioligand. [^3H]-nicotine (L-(−)-[N-methyl-3H]-nicotine, 69.5 Ci/mmol, Perkin-Elmer Life Sciences) was used for human α4β2 binding studies. [^3H]-epibatidine (52 Ci/mmol, Perkin-Elmer Life Sciences) was used for binding studies at the other receptor subtypes. Incubation was terminated by rapid filtration on a multimanifold tissue harvester (Brandel, Gaithersburg, Md.) using GF/B filters presoaked in 0.33% polyethyleneimine (w/v) to reduce non-specific binding. Filters were washed 3 times and the radioactivity retained was determined by liquid scintillation counting.
(§3) Binding data analysis. Binding data were expressed as percent total control binding. Replicates for each point were averaged and plotted against the log of drug concentration. The IC50 (concentration of the compound that produces 50% inhibition of binding) was determined by least squares non-linear regression using GraphPad Prism software (GraphPAD, San Diego, Calif.). Ki was calculated using the Cheng-Prusoff equation (Cheng and Prusoff, 1973).

Another test addresses T2, Rat α7 (Rattus norvegicus, UniProt Q05941).
T2 construct: Preparation of membranes from rat tissues; Rat cortices were obtained from Analytical Biological Services; tissue Analytical Biological Services, Incorporated (ABS, Wilmington, Del.); host or cells: rat brain membranes (only cortex is described)
The experiment in a line: Competition binding to rat α7 receptors in membrane preparations. The procedure: as §1, §2, §3

Another test concerns male ICR mice. Kind of test: Formalin test (2.5%) in mice. It counts as in vivo. The procedure: The formalin test in mice is a valid and reliable model of nociception and is sensitive for various classes of analgesic drugs. The noxious stimulus is an injection of dilute formalin (1% in saline) under the skin of the dorsal surface of the right hindpaw. The response is the amount of time the animals spend licking the injected paw. Two distinct periods of high licking activity can be identified, an early phase lasting the first 5 min and a late phase lasting from 20 to 30 min after the injection of formalin. See, Hunskaar et al., Pain, 1987, July; 30(1):103-14, incorporated by reference with regard to the test.
A formalin test was carried out in an open Plexiglas cage, with a mirror placed under the floor to allow an unobstructed view of the paws. Mice were allowed to acclimate for 15 min in the test cage before formalin injection. Each animal was injected with 20 μl of 2.5% formalin in the intraplantar region of the right hindpaw. Mice were then observed 0-5 min (Phase 1) and 20-45 min (Phase 2) post-formalin, and the amount of time spent (expressed in sec) licking the injected paw was recorded. Compound A or vehicle were injected s.c. 15 min before the formalin injection.
FIG. 1 illustrates the effects of Compound A in the formalin test (2.5%) in male ICR mice. As described, subject mice were pretreated with an s.c. injection of Compound A and 15 minutes later received formalin ipl. […] The lowest active dose was 3 mg/kg.

A further test has as its target human α4β2 (Homo sapiens, UniProt P17787+P43681). Kind of test: Competition binding to human α4β2 receptors in membrane preparations. How it is done: (§4) SH-EP1/human α4β2 (Eaton et al., 2003), SH-EP1/human α4β4 (Gentry et al., 2003), SH-EP1/α6β3β4α5 (Grinevich et al., 2005), TE671/RD and SH-SY5Y cell lines (obtained from Dr. Ron Lukas, Barrow Neurological Institute) were maintained in proliferative growth phase in Dulbecco's modified Eagle's medium (Gibco/BRL) with 10% horse serum (Gibco BRL), 5% fetal bovine serum (HyClone, Logan Utah), 1 mM sodium pyruvate, 4 mM L-glutamine. For maintenance of stable transfectants, the α4β2 and α4β4 cell media was supplemented with 0.25 mg/mL zeocin and 0.13 mg/mL hygromycin B. Selection was maintained for the α6β3β4α5 cells with 0.25 mg/mL of zeocin, 0.13 mg/mL of hygromycin B, 0.4 mg/mL of geneticin, and 0.2 mg/mL of blasticidin. HEK/human α7/RIC3 cells (obtained from J. Lindstrom, U. Pennsylvania) were maintained in proliferative growth phase in Dulbecco's modified Eagle's medium (Gibco/BRL) with 10% fetal bovine serum (HyClone, Logan Utah), 1 mM sodium pyruvate, 4 mM L-glutamine, 0.4 mg/mL geneticin; 0.2 mg/ml hygromycin B.
as §1, §2
(§5) Binding data analysis. Binding data were expressed as percent total control binding. Replicates for each point were averaged and plotted against the log of drug concentration. […]

Another test addresses T3, Human α7 (Homo sapiens, UniProt P36544).
T3 construct: host or cells: HEK cells co-expressing RIC3
Kind of test: Competition binding to human α7 receptors in membrane preparations. The procedure:
as §4, §1, §2, §5

Where [1] appears, read: membranes, [3H]-nicotine competition, Ki by Cheng-Prusoff, read-out: human α4β2 Ki.
Setting [2] is: membranes, [3H]-epibatidine competition, Ki by Cheng-Prusoff, read-out: Rat α7 Ki.
Setting [3] is: membranes, [3H]-epibatidine competition, Ki by Cheng-Prusoff, read-out: Human α7 Ki.
The mark [4] stands for this setting: membranes, [3H]-epibatidine competition, Ki by Cheng-Prusoff, read-out: Rat α4β2 Ki.

Read-outs that look alike come from different tables or passages of the source.

By Ki is commonly meant a dissociation constant, usually derived from enzyme kinetics or from competition with a known ligand.

For the molecule `Fc1cncc(N2CC3CNCC(C2)O3)c1` [Compound A, 3-(5-fluoropyridin-3-yl)-9-oxa-3,7-diazabicyclo[3.3.1]nonane], the Ki is 1.3 nM at Rat α4β2, 36 nM at Rat α7, 1.8 nM on human α4β2 (setting [1]) and 76 nM at Human α7. The “nociceptive behavior (time licking the injected paw), Phase 1” value in the test with male ICR mice (0-5 min post-formalin, s.c. 15 min before formalin, F(1,35)=41.8, P<0.0001) is on record as “significantly reduced”. Moreover, the “nociceptive behavior (time licking the injected paw), Phase 2” value in the test on male ICR mice (20-45 min post-formalin, s.c. 15 min before formalin, F(1,35)=24.8, P<0.0001) was “significantly reduced”. This molecule also returned a lowest active dose with male ICR mice (formalin test, s.c. administration) of 3 mg/kg. For the same molecule, in the test with male ICR mice (mecamylamine 2 mg/kg), the “effects in formalin test in presence of mecamylamine” value is given as “blocked”.
Consider `COc1cncc(N2CC3CNCC(C2)O3)c1` [3-(5-methoxypyridin-3-yl)-9-oxa-3,7-diazabicyclo[3.3.1]nonane], for which the Ki on Rat α4β2 was determined as 1.9 nM; at Rat α7 (setting [2]) it was 560 nM; at human α4β2 (setting [1]), 0.9 nM; on Human α7 (setting [3]) it was 350 nM.
For `c1cncc(N2CC3CNCC(C2)O3)c1` [3-(pyridin-3-yl)-9-oxa-3,7-diazabicyclo[3.3.1]nonane], in that order: 3.9 nM, 650 nM, 1.1 nM and 670 nM.
Consider `Clc1cc(N2CC3CNCC(C2)O3)cnc1Cl` [3-(5,6-dichloropyridin-3-yl)-9-oxa-3,7-diazabicyclo[3.3.1]nonane], for which the Ki is 0.7 nM on Rat α4β2 (setting [4]), 84 nM at Rat α7 (setting [2]), 0.3 nM on human α4β2 and 39 nM at Human α7 (setting [3]).
With `c1ncc(N2CC3CNCC(C2)O3)cn1` [3-(pyrimidin-5-yl)-9-oxa-3,7-diazabicyclo[3.3.1]nonane], the Ki came out at 8 nM on Rat α4β2, 3200 nM on Rat α7 (setting [2]), 7.6 nM on human α4β2 (setting [1]) and 2900 nM on Human α7 (setting [3]).
In the case of `Fc1ccc(N2CC3CNCC(C2)O3)cn1` [3-(6-fluoropyridin-3-yl)-9-oxa-3,7-diazabicyclo[3.3.1]nonane], the Ki on Rat α4β2 came to 16 nM; on Rat α7 (setting [2]), 1400 nM; at human α4β2 (setting [1]), 2.5 nM; at Human α7 (setting [3]), 180 nM.
For `Cc1cncc(N2CC3CNCC(C2)O3)c1` [3-(5-methylpyridin-3-yl)-9-oxa-3,7-diazabicydo[3.3.1]nonane], in that order: 0.5 nM, 200 nM, 0.3 nM and 4500 nM.
For `Clc1ccc(Oc2cncc(N3CC4CNCC(C3)O4)c2)cc1Cl` [3-(5-(3,4-dichlorophenoxy)pyridin-3-yl)-9-oxa-3,7-diazabicyclo[3.3.1]nonane], in that order: 11 nM, 210 nM, 3.5 nM and 360 nM.
For `Clc1ccc(N2CC3CNCC(C2)O3)cn1` [3-(6-chloropyridin-3-yl)-9-oxa-3,7-diazabicydo[3.3.1]nonane], in that order: 5.2 nM, 210 nM, 1.2 nM and 240 nM.
Turning to `Clc1cncc(N2CC3CNCC(C2)O3)c1` [3-(5-chloropyridin-3-yl)-9-oxa-3,7-diazabicydo[3.3.1]nonane], the Ki at Rat α4β2 (setting [4]) is 2.1 nM; on Rat α7 (setting [2]), 370 nM; at human α4β2 it was 1 nM; at Human α7 (setting [3]) it was 180 nM.

The record behind these values is US20110257168A1, “DERIVATIVES OF OXABISPIDINE AS NEURONAL NICOTINIC ACETYLCHOLINE RECEPTOR LIGANDS” (Targacept, Inc., priority 2008, published 2011).
